Measured values: PubChem BioAssay AID1259407 (Chemical Carcinogenesis Research Information System (CCRIS), 2018)
Active and inactive are the calls of the source. How the calls were made is not given here.

Test system: CCRIS mutagenicity, Ames/micronucleus/aberration tests
Experiment: CCRIS mutagenicity studies
[1] = Test System: AMES SALMONELLA TYPHIMURIUM, Strain/Indicator: TA98, Metabolic Activation: RAT, LIVER, S-9, AROCLOR 1254, Method: STANDARD PLATE
[2] = Test System: AMES SALMONELLA TYPHIMURIUM, Strain/Indicator: TA100, Metabolic Activation: NONE, Method: STANDARD PLATE

With `CN(C)c1ccc(N=Nc2ccccc2C(=O)O)cc1` the mutagenic call (Test System: AMES SALMONELLA TYPHIMURIUM, Strain/Indicator: TA98, Metabolic Activation: RAT, LIVER, S-9, POLYCHLORINATED BIPHENYLS, Method: PREINCUBATION) was “active; positive” and the mutagenic call (Test System: AMES SALMONELLA TYPHIMURIUM, Strain/Indicator: TA100, Metabolic Activation: RAT, LIVER, S-9, POLYCHLORINATED BIPHENYLS, Method: PREINCUBATION) was “inactive; negative”.
In the case of `Oc1ccc([C@H]2COc3cc(O)ccc3C2)cc1`, the mutagenic call (End Point: IN VITRO MICRONUCLEUS, Test System: CHINESE HAMSTER V79 CELLS, Metabolic Activation: NONE) is reported as “active; positive”.
In the case of `CC(CCC(=O)O)(c1ccc(O)cc1)c1ccc(O)cc1`, the mutagenic call (Test System: MOUSE LYMPHOMA, Strain/Indicator: L5178Y (TK+/TK-), Metabolic Activation: NONE, Method: SUSPENSION/PLATE) is reported as “active; positive” and the mutagenic call (Test System: MOUSE LYMPHOMA, Strain/Indicator: L5178Y (TK+/TK-), Metabolic Activation: RAT LIVER S-9, AROCLOR, Method: SUSPENSION/PLATE) is reported as “active; positive”.
For `Cc1cc(=O)c2c(O)c3c(O)cc(O)c4c5c(O)cc(O)c6c(O)c7c(=O)cc(C)c8c1c2c(c34)c(c65)c78`, the mutagenic call (Test System: AMES SALMONELLA TYPHIMURIUM, Strain/Indicator: TA98, Metabolic Activation: NONE, Method: STANDARD PLATE) was “inactive; negative”, the mutagenic call [1] was “inactive; negative” and the mutagenic call [2] was “inactive; negative”. The mutagenic call (Test System: AMES SALMONELLA TYPHIMURIUM, Strain/Indicator: TA100, Metabolic Activation: RAT, LIVER, S-9, AROCLOR 1254, Method: STANDARD PLATE) was “inactive; negative”.
With `O=C1C=CC(=O)C1(Cl)Cl` the mutagenic call [2] was “active; positive”.
In the case of `Cc1cnc2c(cc(C)c3c2nc(N)n3C)n1`, the mutagenic call [1] is reported as “active; positive”.
With `CC(=O)O[C@H]1[C@H]2O[C@H]2C2=CC(=O)[C@]3(C[C@]2(C)[C@H]1C)O[C@]3(C)C=O` the mutagenic call (Test System: AMES SALMONELLA TYPHIMURIUM, Strain/Indicator: TA98, Metabolic Activation: NONE, Method: PREINCUBATION) was “active; positive”, the mutagenic call (Test System: AMES SALMONELLA TYPHIMURIUM, Strain/Indicator: TA98, Metabolic Activation: RAT, LIVER, S-9, PHENOBARBITAL AND BETA-NAPHTHOFLAVONE, Method: PREINCUBATION) was “inactive; negative” and the mutagenic call (Test System: AMES SALMONELLA TYPHIMURIUM, Strain/Indicator: TA100, Metabolic Activation: NONE, Method: PREINCUBATION) was “inactive; negative”. The mutagenic call (Test System: AMES SALMONELLA TYPHIMURIUM, Strain/Indicator: TA100, Metabolic Activation: RAT, LIVER, MICROSOMES, PHENOBARBITAL, Method: STANDARD PLATE) was “active; positive”, the mutagenic call (Test System: AMES SALMONELLA TYPHIMURIUM, Strain/Indicator: TA100, Metabolic Activation: RAT, LIVER, S-9, PHENOBARBITAL AND BETA-NAPHTHOFLAVONE, Method: PREINCUBATION) was “inactive; negative” and the mutagenic call (Test System: AMES SALMONELLA TYPHIMURIUM, Strain/Indicator: TA100, Metabolic Activation: RAT, LIVER, S-9, PHENOBARBITAL, Method: PREINCUBATION) was “inactive; negative”. The mutagenic call (Test System: AMES SALMONELLA TYPHIMURIUM, Strain/Indicator: TA1535, Metabolic Activation: NONE, Method: PREINCUBATION) was “inactive; negative”, the mutagenic call (Test System: AMES SALMONELLA TYPHIMURIUM, Strain/Indicator: TA1535, Metabolic Activation: RAT, LIVER, S-9, PHENOBARBITAL AND BETA-NAPHTHOFLAVONE, Method: PREINCUBATION) was “inactive; negative” and the mutagenic call (Test System: AMES SALMONELLA TYPHIMURIUM, Strain/Indicator: TA1537, Metabolic Activation: NONE, Method: PREINCUBATION) was “inactive; negative”. The mutagenic call (Test System: AMES SALMONELLA TYPHIMURIUM, Strain/Indicator: TA1537, Metabolic Activation: RAT, LIVER, S-9, PHENOBARBITAL AND BETA-NAPHTHOFLAVONE, Method: PREINCUBATION) was “inactive; negative”, the mutagenic call (Test System: AMES SALMONELLA TYPHIMURIUM, Strain/Indicator: TA1538, Metabolic Activation: NONE, Method: PREINCUBATION) was “inactive; negative” and the mutagenic call (Test System: AMES SALMONELLA TYPHIMURIUM, Strain/Indicator: TA1538, Metabolic Activation: RAT, LIVER, S-9, PHENOBARBITAL AND BETA-NAPHTHOFLAVONE, Method: PREINCUBATION) was “inactive; negative”.
